Experimental data from patent US10662203B2, “Pyrido[2,3-b]indole compounds for the treatment and prophylaxis of bacterial infection” (Hoffmann-La Roche Inc., priority 2017, dated 2020).
≈ marks a conversion by molar mass, not a printed value.

Legend:
S. aureus (ATCC29213) = experiment: 50% growth inhibitory concentration (IC50) determination assay; format: cell-based; details: Staphylococcus aureus, Iso-Sensitest broth, 0.098 = detection limit
Procedure, shortened: (§1)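 Compounds were two-fold serially diluted (50 to 0.097 μM final) in Iso-Sensitest broth, with ~5×10^5 CFU/mL bacteria. Plates were incubated at 35±2° C and growth followed by OD600 every 20 min over 16 h to derive IC50.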

[1] = tested on: K. pneumoniae (ATCC10031); experiment: as above; format: cell-based; details: Klebsiella pneumoniae, Iso-Sensitest broth, 0.098 = detection limit
Procedure, shortened: as §1

A. baumannii (ATCC17978) = experiment: as above; format: cell-based; details: Acinetobacter baumannii, ATCC17978, A. baumannii ATCC17978; Iso-Sensitest broth; 0.098 = detection limit
Procedure, shortened: as §1

[2] = Lyophilisation solubility assay (LYSA); format: physicochemical; details: phosphate buffer, pH 6.5, aqueous buffer, thermodynamic from solid, 0.05 M phosphate buffer, HPLC-UV
Description: Lyophilisation Solubility Assay (LYSA):
The solubility of compounds of present invention was assessed by LYSA assay. Samples were prepared in duplicate from 10 mM DMSO stock solutions (20 μL) diluted in 30 μL pure DMSO. After evaporation of DMSO with a centrifugal vacuum evaporator, the residue was dissolved in 0.05 M phosphate buffer (150 μL, pH 6.5), which was stirred for one hour and shook for two hours. After one night, the solution was filtered using a microtiter filter plate. Then the filtrate and its 1/10 dilution were analyzed by HPLC-UV.

| Compound | IC50 (S. aureus (ATCC29213)) | IC50 [1] | IC50 (A. baumannii (ATCC17978)) | solubility thermodynamic [2] |
| --- | --- | --- | --- | --- |
| CNc1cc(F)cc2c1[nH]c1ncc(-c3cnc4c(c3)c(=O)c(C(=O)O)cn4C)c(N3CC[C@H]4CN(C)CC43)c12 (stereo partly drawn) [Example 1.187] | < 0.098 µM | < 0.098 µM | 0.096 µM | > 730 µg/mL |
| CCNn1cc(C(=O)O)c(=O)c2cc(-c3cnc4[nH]c5c(NC)cc(F)c(F)c5c4c3N3CC[C@H]4CN(C)CC43)cnc21 (stereo partly drawn) [Example 1.291] | < 0.098 µM | < 0.098 µM | 0.157 µM | 138 µg/mL (≈ 234 µM) |
| CNc1cc(F)cc2c1[nH]c1ncc(-c3cnc4c(c3)c(=O)c(C(=O)O)cn4C)c(N3CCC4(C)CN(C)CC34)c12 (stereo not drawn) [Example 1.272] | < 0.098 µM | < 0.098 µM | 0.112 µM | > 632 µg/mL |
| CNc1cc(Cl)cc2c1[nH]c1ncc(-c3cnc4c(c3)c(=O)c(C(=O)O)cn4C)c(N3CCC(N(C)C)C3)c12 (stereo not drawn) [Example 1.139] | < 0.098 µM | < 0.098 µM | 0.116 µM | 20 µg/mL (≈ 36.6 µM) |
| CNc1cc(F)c(F)c2c1[nH]c1ncc(-c3cnc4c(c3)c(=O)c(C(=O)O)cn4C)c(N3CC4[C@H](CC[C@H]4N(C)C)C3)c12 (stereo partly drawn) [Example 1.221] | < 0.098 µM | < 0.098 µM | 0.081 µM | 49 µg/mL (≈ 83.4 µM) |
| CNc1cc(F)c(F)c2c1[nH]c1ncc(-c3cnc4c(c3)c(=O)c(C(=O)O)cn4NC)c(N3CCC4(F)CN(C)CC34)c12 (stereo not drawn) [Example 1.121] | < 0.098 µM | < 0.098 µM | 0.215 µM | 58 µg/mL (≈ 97.9 µM) |
| CNc1cc(F)c(F)c2c1[nH]c1ncc(-c3cnc4c(c3)c(=O)c(C(=O)O)cn4C)c(N3CCC(CN(C)C)CC3)c12 [Example 1.183] | < 0.098 µM | < 0.098 µM | 0.103 µM | 96 µg/mL (≈ 167 µM) |
| CNc1cc(F)c(F)c2c1[nH]c1ncc(-c3cnc4c(c3)c(=O)c(C(=O)O)cn4C)c(N3CC4CCCN(C)C4C3)c12 (stereo not drawn) [Example 1.232] | < 0.098 µM | < 0.098 µM | 0.049 µM | 23 µg/mL (≈ 40.1 µM) |
| CNc1cc(F)cc2c1[nH]c1ncc(-c3cnc4c(c3)c(=O)c(C(=O)O)cn4C)c(N3CCC(CN(C)CCOC)C3)c12 (stereo not drawn) [Example 1.141] | < 0.098 µM | < 0.098 µM | 0.485 µM | 485 µg/mL (≈ 825 µM) |
| CNc1cc(F)c(F)c2c1[nH]c1ncc(-c3cnc4c(c3)c(=O)c(C(=O)O)cn4NC)c(N3C[C@@H]4CCN(C)[C@@H]4C3)c12 [Example 3.07B] | 0.122 µM | < 0.098 µM | 0.155 µM | 33 µg/mL (≈ 57.4 µM) |
| CNc1cc(F)c(F)c2c1[nH]c1ncc(-c3cnc4c(c3)c(=O)c(C(=O)O)cn4C)c(N3CCC4C3CCCN4C)c12 (stereo not drawn) [Example 1.246] | 0.193 µM | < 0.098 µM | 0.317 µM | > 612 µg/mL |
| CNc1cc(F)c(F)c2c1[nH]c1ncc(-c3cnc4c(c3)c(=O)c(C(=O)O)cn4C)c(N3CCC4(CF)CN(C)CC34)c12 (stereo not drawn) [Example 1.124] | < 0.098 µM | < 0.098 µM | 0.074 µM | 151 µg/mL (≈ 255 µM) |
| CNc1cc(F)cc2c1[nH]c1ncc(-c3cnc4c(c3)c(=O)c(C(=O)O)cn4C)c(N3CC[C@H]4CCN(C)C4C3)c12 (stereo partly drawn) [Example 1.211] | < 0.098 µM | < 0.098 µM | 0.11 µM | 205 µg/mL (≈ 369 µM) |
| CNc1cc(F)c(F)c2c1[nH]c1ncc(-c3cnc4c(c3)c(=O)c(C(=O)O)cn4C)c(N3CCC4(CCCN(C)C4)C3)c12 (stereo not drawn) [Example 1.190] | 12.2 µM | < 0.098 µM | 0.143 µM | 62 µg/mL (≈ 106 µM) |
| CNc1cc(F)c(F)c2c1[nH]c1ncc(-c3cnc4c(c3)c(=O)c(C(=O)O)cn4C)c(N3CC[C@H]4CN(CCO)CC43)c12 (stereo partly drawn) [Example 1.205] | < 0.098 µM | < 0.098 µM | 0.143 µM | 192 µg/mL (≈ 326 µM) |
| CNc1cc(Cl)cc2c1[nH]c1ncc(-c3cnc4c(c3)c(=O)c(C(=O)O)cn4NC)c(N3CC[C@H]4CN(C)CC43)c12 (stereo partly drawn) [Example 1.264] | < 0.098 µM | < 0.098 µM | 0.267 µM | 159 µg/mL (≈ 277 µM) |
| CNc1cc(F)c(F)c2c1[nH]c1ncc(-c3cnc4c(c3)c(=O)c(C(=O)O)cn4C)c(N3CCC(N4CCCC4)CC3)c12 [Example 1.203] | 0.208 µM | < 0.098 µM | 0.778 µM | 303 µg/mL (≈ 516 µM) |
| CNc1cc(F)c(F)c2c1[nH]c1ncc(-c3cnc4c(c3)c(=O)c(C(=O)O)cn4C)c(N3CCC4CN(C)CCC43)c12 (stereo not drawn) [Example 1.243] | 0.712 µM | 0.403 µM | 0.961 µM | 151 µg/mL (≈ 263 µM) |
| CNc1cc(F)c(F)c2c1[nH]c1ncc(-c3cnc4c(c3)c(=O)c(C(=O)O)cn4C)c(N3CCCC(N(C)C)C3)c12 (stereo not drawn) [Example 1.215] | 0.114 µM | 0.103 µM | 0.252 µM | 48 µg/mL (≈ 85.5 µM) |
| CNc1cc(F)c(F)c2c1[nH]c1ncc(-c3cnc4c(c3)c(=O)c(C(=O)O)cn4NC)c(N3CC4[C@@H](C3)OCCN4C)c12 (stereo partly drawn) [Example 1.242] | < 0.098 µM | < 0.098 µM | 0.189 µM | 24 µg/mL (≈ 40.6 µM) |
| CNc1cc(F)c(F)c2c1[nH]c1ncc(-c3cnc4c(c3)c(=O)c(C(=O)O)cn4C)c(N3CCC(N(C)CCOC)C3)c12 (stereo not drawn) [Example 1.198] | < 0.098 µM | < 0.098 µM | 0.215 µM | 56 µg/mL (≈ 94.7 µM) |
| CCN1CCCC1Cn1cc(C(=O)O)c(=O)c2cc(-c3cnc4[nH]c5c(NC)cc(F)c(F)c5c4c3N(C)C)cnc21 (stereo not drawn) [Example 1.04] | < 0.098 µM | 0.101 µM | 0.935 µM | 32 µg/mL (≈ 55.6 µM) |
| CNc1cc(F)c(F)c2c1[nH]c1ncc(-c3cnc4c(c3)c(=O)c(C(=O)O)cn4C)c(N3CCC4(CCCN(CCOC)C4)C3)c12 (stereo not drawn) [Example 1.195] | < 0.098 µM | < 0.098 µM | 0.499 µM | 29 µg/mL (≈ 45.9 µM) |
| CNc1cc(F)c(F)c2c1[nH]c1ncc(-c3cnc4c(c3)c(=O)c(C(=O)O)cn4C)c(N3CC4[C@@H](C3)CN4C)c12 (stereo partly drawn) [Example 1.252] | < 0.098 µM | < 0.098 µM | 0.361 µM | 41 µg/mL (≈ 75.2 µM) |
| CNc1cc(F)cc2c1[nH]c1ncc(-c3cnc4c(c3)c(=O)c(C(=O)O)cn4C)c(N3CC4[C@H](CCN4C)C3)c12 (stereo partly drawn) [Example 1.209] | < 0.098 µM | < 0.098 µM | 0.076 µM | 63 µg/mL (≈ 116 µM) |
| CNc1cc(F)cc2c1[nH]c1ncc(-c3cnc4c(c3)c(=O)c(C(=O)O)cn4C)c(N3CC[C@@H]4CCN(C)[C@@H]4C3)c12 [Example 3.18B] | 0.133 µM | < 0.098 µM | 0.275 µM | 338 µg/mL (≈ 608 µM) |
| CNc1cc(F)c(F)c2c1[nH]c1ncc(-c3cnc4c(c3)c(=O)c(C(=O)O)cn4C)c(N3CC[C@@H]4C3CCN4C)c12 (stereo partly drawn) [Example 1.245] | < 0.098 µM | < 0.098 µM | 0.293 µM | 542 µg/mL (≈ 969 µM) |
| CNc1cc(F)cc2c1[nH]c1ncc(-c3cnc4c(c3)c(=O)c(C(=O)O)cn4NC)c(N3CCC4(C)CN(C)CC34)c12 (stereo not drawn) [Example 1.273] | < 0.098 µM | < 0.098 µM | 0.254 µM | 468 µg/mL (≈ 820 µM) |
| CNc1cc(F)c(F)c2c1[nH]c1ncc(-c3cnc4c(c3)c(=O)c(C(=O)O)cn4C)c(N3CCC(N(C)CCO)C3)c12 (stereo not drawn) [Example 1.200] | 0.1 µM | < 0.098 µM | 0.57 µM | 69 µg/mL (≈ 119 µM) |
| CCn1cc(C(=O)O)c(=O)c2cc(-c3cnc4[nH]c5c(NC)cc(F)cc5c4c3N3CC[C@H]4CN(C)CC43)cnc21 (stereo partly drawn) [Example 1.289] | < 0.098 µM | < 0.098 µM | 0.21 µM | 113 µg/mL (≈ 203 µM) |
